Assays:
[1] = test system: 6-OHDA-lesioned juvenile rats; experiment: Locomotor activity of juvenile rats with neonatal 6-OHDA lesions (model of ADHD); type: in vivo, rat
Experimental: The behavioral effects of (1R,5S)-(+)-1-(naphthalen-2-yl)-3-azabicyclo[3.1.0]hexane were evaluated in a model of ADHD, which can be simulated in juvenile rates with neonatal 6-hydroxydopamine (6-OHDA) lesions (Davids et al., 2003). In this animal model, the NE neurons are protected from the neurotoxic effects of 6-OHDA by pretreatment with the NE transporter inhibitor desipramine, so the NE system is largely intact and can respond to NE transporter inhibitors (Davids et al., 2002). Furthermore, the 6-OHDA lesions produce learning and memory deficits in learning models including the T maze, and active and passive avoidance tasks (Shaywitz et al., 1978; Wool et al., 1987; Takasuna and Iwasaki, 1996). Performance in these learning and memory models was improved by administration of stimulants (Shaywitz et al., 1978; Wool et al., 1987). Thus, this model incorporates both hyperactivity and learning deficits found in ADHD.
(§1) Methods of lesioning neonatal rats with 6-OHDA were carried out as detailed in Zhang et al. (2001). Briefly, on postnatal day 1 (PD 1), male Sprague-Dawley rat pups were randomly assigned to a nursing dam (10/dam). On PD 5, pups receive a subcutaneous injection of 25 mg/kg desipramine hydrochloride to protect noradrenergic neurons, followed in 45 min. by randomly assigned intracisternal injection of vehicle or 6-OHDA hydrobromide (100 μg free base) under hypothermic anesthesia. Pups were returned to nursing dams immediately after the intracranial injections. Locomotor activity was monitored individually for 90 min. in the periadolescent period on PD 25, using a microcomputer controlled infrared photobeam activity monitoring system. Locomotor activity was defined as breaking of consecutive photobeams and the activity accumulated in 5 minute bins. Behavioral testing was conducted in a novel environment (transparent plastic cages containing fresh bedding) within a grid of horizontal infrared beams. Each dose of (1R,5S)-(+)-1-(naphthalen-2-yl)-3-azabicyclo[3.1.0]hexane (1, 3 and 10 mg/kg) or methylphenidate (3 mg/kg) was dissolved in saline and given i.p. immediately prior to testing. The effects of sham versus 6-OHDA lesions on dopamine neurons in rats were quantified as decrements of DA transporters labeled with [31-1]2-(3-carbomethoxy-3-β-[4′-iodophenyl]tropane ([^3H]β-CIT), a selective DA transporter radioligand (Kula et al. 1999). Sections were preincubated (60 min., room temp [RT]) in 50 mM Tris-HCl buffer (pH 7.7) containing 120 mM NaCl and 4 mM MgCl2, then in fresh buffer (60 min) containing 2 nM [3H](3-CIT. Nonspecific binding was defined with 1 μM GBR-12909. Slides were then washed (2×5 min) in ice-cold buffer, dipped in ice-cold water, and air-dried. Radiolabeled slides and calibrated [^3H]standards were exposed to [^3H]sensitive films for 10-14 d at 4° C. Tritium-sensitive Hyperfilms were developed and fixed in Kodak D-19 for 5 min. at RT. Images were quantified with a computer-controlled MCID image analyzer. Brain regions of interest were outlined and their optical density was measured with two sections representing total binding, with two samples representing nonspecific binding. Optical density of sampled regions was measured and the amount of ligand bound within each area was calculated as nCi/mg tissue. Mean values of non-specific binding in each region were subtracted from the mean total binding to determine specific binding, which was converted into fmol/mg of radioligand bound.

[2] = test system: dopamine transporters; experiment: Autoradiographic binding of [3H]β-CIT to dopamine transporters in juvenile rat brain after neonatal 6-OHDA lesioning; type: in vivo; conditions: for specific binding of [3H]β-CIT to dopamine transporters, 6-OHDA Lesioned: mean ± SEM
Experimental: as §1

| SMILES | cumulative locomotor score ([1]; 6-OHDA-lesioned rats, PD 25, 90 minute testing period) | fold difference of cumulative locomotor score versus sham-lesioned rats ([1]; PD 25, 90 minute testing period, p<0.001) [fold] | % Sham Lesion, binding of [3H]β-CIT ([2]; lateral caudate-putamen) [%] | specific binding of [3H]β-CIT to dopamine transporters, 6-OHDA Lesioned ([2]; lateral caudate-putamen) [fmol/mg tissue] | % Sham Lesion, binding of [3H]β-CIT ([2]; medial caudate-putamen) [%] | specific binding of [3H]β-CIT to dopamine transporters, 6-OHDA Lesioned ([2]; medial caudate-putamen) [fmol/mg tissue] | % Sham Lesion, binding of [3H]β-CIT ([2]; nucleus accumbens septi) [%] | specific binding of [3H]β-CIT to dopamine transporters, 6-OHDA Lesioned ([2]; nucleus accumbens septi) [fmol/mg tissue] | locomotor activity (FIGS. 7A and 7B) ([1]; 6-OHDA-lesioned juvenile rats at PD25, p<0.05 versus vehicle) | time over which locomotor activity was significantly attenuated ([1]; methylphenidate 3 mg/kg i.p., PD 25, 90 min test) [min] |
| --- | --- | --- | --- | --- | --- | --- | --- | --- | --- | --- |
| NCCc1cc(O)c(O)cc1O [6-OHDA, 6-hydroxydopamine] | 2758±3.0 | 9 | 25.7 | 30.9 ± 2.4 | 22.2 | 24.9 ± 3.5 | 32.2 | 22.8 ± 1.8 | – | – |
| COC(=O)C(c1ccccc1)C1CCCCN1 (stereo not shown) [methylphenidate, reference compound] | – | – | – | – | – | – | – | – | reduced locomotor activity | 90 |

From US12042481B2, “Use of (1R,5S)-(+)-1-(naphthalen-2-yl)-3-azabicyclo[3.1.0]hexane in the treatment of conditions affected by monoamine neurotransmitters” (priority 2011, dated 2024)
